Measured values published in patent US20230145835A1, “Modulators of Alpha-4-beta-7 Integrin and MAdCAM” (48HD Biopharma Inc., priority 2021, published 2023).
pIC50: −log10 of the molar value. Where two headings read alike, the source gives them in different places. Numbered stars: 1 amine (or outer) side, 2 acyl side, 3 side chain; on linkers, the order of the positions; unused ones are H or OH. Bridge positions count the residues as written; N and C are the ends. Square brackets hold non-standard residues; d marks the D form. Peptide text beside a SMILES is read from it. * marks the point of attachment. X3 = O=C(/C=N/OCCCCCCOc1cc(C[*:2])cc(C[*:3])c1)[*:1]; X7 = O=C(/C=N\OCc1cc(C[*:2])cc(C[*:3])c1)[*:1]; X11 = CCCCCOc1cc(C[*:1])cc(C[*:2])c1; Met(O) = CS(=O)CC[C@H](N)C(=O)O; Nle = CCCC[C@H](N)C(=O)O; X10 = CO/N=C/C(=O)*

Target: T1, rh-integrin α4β7/LPAM-1 (Homo sapiens, UniProt P13612+P26010)
T1 sequence (P13612 34-977 limits assumed): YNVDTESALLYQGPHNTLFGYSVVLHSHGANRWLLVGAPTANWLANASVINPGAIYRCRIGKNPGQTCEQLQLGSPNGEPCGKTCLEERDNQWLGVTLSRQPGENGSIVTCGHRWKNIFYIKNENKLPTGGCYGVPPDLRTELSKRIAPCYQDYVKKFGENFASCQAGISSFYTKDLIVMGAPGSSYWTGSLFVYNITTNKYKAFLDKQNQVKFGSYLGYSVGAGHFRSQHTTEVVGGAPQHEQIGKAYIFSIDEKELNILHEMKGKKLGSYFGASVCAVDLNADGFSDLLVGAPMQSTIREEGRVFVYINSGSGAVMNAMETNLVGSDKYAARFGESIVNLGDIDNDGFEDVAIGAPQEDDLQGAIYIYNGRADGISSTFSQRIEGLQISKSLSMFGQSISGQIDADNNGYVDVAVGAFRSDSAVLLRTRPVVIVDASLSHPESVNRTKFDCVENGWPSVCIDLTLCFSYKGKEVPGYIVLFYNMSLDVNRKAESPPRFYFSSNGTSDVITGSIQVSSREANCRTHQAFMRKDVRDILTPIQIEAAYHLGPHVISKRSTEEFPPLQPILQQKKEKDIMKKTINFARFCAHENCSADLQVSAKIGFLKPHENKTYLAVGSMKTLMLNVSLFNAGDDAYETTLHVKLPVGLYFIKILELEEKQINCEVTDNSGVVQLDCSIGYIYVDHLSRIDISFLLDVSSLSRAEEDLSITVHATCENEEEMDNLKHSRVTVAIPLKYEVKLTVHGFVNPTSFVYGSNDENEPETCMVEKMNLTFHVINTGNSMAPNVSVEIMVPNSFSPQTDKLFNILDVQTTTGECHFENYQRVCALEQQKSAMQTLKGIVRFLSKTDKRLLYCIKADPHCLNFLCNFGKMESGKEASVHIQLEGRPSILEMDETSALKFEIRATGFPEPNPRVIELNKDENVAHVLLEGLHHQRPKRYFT
T1 sequence (P26010 20-723 limits assumed): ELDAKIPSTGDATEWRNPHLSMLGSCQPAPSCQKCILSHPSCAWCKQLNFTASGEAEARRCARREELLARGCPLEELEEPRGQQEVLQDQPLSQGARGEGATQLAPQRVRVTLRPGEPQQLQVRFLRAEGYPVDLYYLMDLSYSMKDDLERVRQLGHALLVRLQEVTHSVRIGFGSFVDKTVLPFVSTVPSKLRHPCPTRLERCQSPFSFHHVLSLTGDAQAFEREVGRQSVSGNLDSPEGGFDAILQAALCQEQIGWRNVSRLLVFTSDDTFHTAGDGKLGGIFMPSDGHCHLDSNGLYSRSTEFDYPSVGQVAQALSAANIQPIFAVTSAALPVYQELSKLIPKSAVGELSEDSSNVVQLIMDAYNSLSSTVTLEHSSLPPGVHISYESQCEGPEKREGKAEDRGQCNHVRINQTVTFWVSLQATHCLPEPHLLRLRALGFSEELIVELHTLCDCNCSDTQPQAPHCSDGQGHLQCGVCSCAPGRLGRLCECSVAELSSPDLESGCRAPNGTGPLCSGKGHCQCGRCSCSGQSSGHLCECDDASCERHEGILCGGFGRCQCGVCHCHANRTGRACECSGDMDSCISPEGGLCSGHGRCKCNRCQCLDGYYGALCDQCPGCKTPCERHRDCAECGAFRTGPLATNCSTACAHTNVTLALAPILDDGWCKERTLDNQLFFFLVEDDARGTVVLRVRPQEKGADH
Assay: α4β7-MadCAM Competition ELISA (Example 4)
Format: binding
Settings: inhibition of MAdCAM binding to coated α4β7
Procedure: After washing with wash buffer, 200 μL assay buffer was added to each well and incubated for one hour at 28° C. After another wash with wash buffer, 100 μL of a MAdCAM and peptide mixture in assay buffer was added to each well and incubated for one hour at 28° C., followed by washing with wash buffer.

[1] = Table 3 Representative compounds, read-out: IC50

Structure (SMILES) | pIC50 [1] | pIC50 (IC50, Table 3 Representative compounds)
CC[C@H](C)[C@@H]1NC(=O)[C@H]([C@@H](C)O)NC(=O)[C@H](CC(=O)O)NC(=O)[C@H](CO)NC(=O)[C@H](CCCNC(=N)N)NC(=O)[C@@H]2CSCc3cc(cc(c3)OCCCCCCO/N=C/C(=O)N[C@@H](C)C(=O)N2)CSC[C@@H](C(N)=O)NC1=O [compound 90, TSL6- SACRSDTLC] (ACRSDTIC-NH2; linker N-2-8 via X3) | 4.10 | –
CC[C@H](C)[C@@H]1NC(=O)/C=N/OCCCCCCOc2cc3cc(c2)CSC[C@H](NC1=O)C(=O)N[C@@H](Cc1ccc(O)cc1)C(=O)N1CCC[C@H]1C(=O)N[C@@H](CC(=O)O)C(=O)N[C@@H]([C@@H](C)O)C(=O)N[C@@H](Cc1ccc(O)cc1)C(=O)N[C@@H](Cc1cnc[nH]1)C(=O)N[C@H](C(N)=O)CSC3 [compound 91, TSL6- SICYPDTYHC] (ICYPDTYHC-NH2; linker N-2-9 via X3) | 4.03 | –
CC[C@H](C)[C@@H]1NC(=O)[C@H](CC(=O)O)NC(=O)[C@H](CC(C)C)NC(=O)[C@@H]2CSCc3cc(cc(c3)OCCCCCCO/N=C/C(=O)N[C@@H](CCCNC(=N)N)C(=O)N2)CSC[C@@H](C(N)=O)NC(=O)[C@H](CC(=O)O)NC(=O)[C@H](Cc2ccc(O)cc2)NC(=O)[C@H]([C@@H](C)O)NC1=O [compound 92, TSL6- SRCLDIMYDC] (RCLDITYDC-NH2; linker N-2-9 via X3) | 4.00 | –
C[C@@H]1NC(=O)/C=N/OCCCCCCOc2cc3cc(c2)CSC[C@H](NC1=O)C(=O)N[C@@H](Cc1ccc(O)cc1)C(=O)N1CCC[C@H]1C(=O)N[C@@H](CC(=O)O)C(=O)N[C@@H]([C@@H](C)O)C(=O)N[C@@H](Cc1ccc(O)cc1)C(=O)N[C@@H](Cc1cnc[nH]1)C(=O)N[C@H](C(N)=O)CSC3 [compound 93, TSL6- SACYPDTYHC] (ACYPDTYHC-NH2; linker N-2-9 via X3) | 3.95 | –
CC[C@H](C)[C@@H]1NC(=O)[C@H]([C@@H](C)O)NC(=O)[C@H](CC(=O)O)NC(=O)[C@H](CO)NC(=O)[C@H](CCCNC(=N)N)NC(=O)[C@@H]2CSCc3cc(cc(c3)CSC[C@@H](C(N)=O)NC1=O)CO/N=C\C(=O)N[C@@H](C)C(=O)N2 [compound 94, TSL1- SACRSDTLC] (ACRSDTIC-NH2; linker N-2-8 via X7) | – | 3.95
C[C@@H](O)[C@@H]1NC(=O)[C@H](CC(=O)O)NC(=O)[C@@H]2CCCN2C(=O)[C@H](Cc2c[nH]c3ccccc23)NC(=O)[C@@H]2CSCc3cc(cc(c3)OCCCCCCO/N=C/C(=O)N[C@@H](CC(=O)O)C(=O)N2)CSC[C@H](C(N)=O)NC(=O)[C@H](Cc2cnc[nH]2)NC(=O)[C@H](Cc2ccc(O)cc2)NC1=O [compound 95, TSL6- SDCWPDTYHC] (DCWPDTYH[dC]-NH2; linker N-2-9 via X3) | 3.94 | –
NC(=O)[C@@H]1CSCc2cc3cc(c2)OCCCCCCO/N=C/C(=O)N[C@@H](CC(=O)O)C(=O)N[C@@H](CSC3)C(=O)N[C@@H](Cc2ccc(O)cc2)C(=O)N2CCC[C@H]2C(=O)N[C@@H](CC(=O)O)C(=O)N[C@@H](Cc2ccccc2)C(=O)N[C@@H](Cc2ccc(O)cc2)C(=O)N[C@@H](Cc2cnc[nH]2)C(=O)N1 [compound 96, TSL6- SDCYPDFYHC] (DCYPDFYHC-NH2; linker N-2-9 via X3) | 3.90 | –
CCCCCOc1cc2cc(c1)CSC[C@H](NC(=O)[C@H](Cc1ccccc1)NC(=O)/C=N/OC)C(=O)N[C@@H](CC(C)C)C(=O)NCC(=O)N[C@@H](Cc1ccc(O)cc1)C(=O)N[C@@H](CCC(=O)O)C(=O)N[C@@H](C)C(=O)N[C@@H]([C@@H](C)O)C(=O)N[C@H](C(N)=O)CSC2 [compound 97, TSL6- SFCLGYEASC] (X10-FCLGYEATC-NH2; linker 2-9 via X11) | 3.90 | –
CSCC[C@@H]1NC(=O)/C=N/OCCCCCCOc2cc3cc(c2)CSC[C@H](NC1=O)C(=O)N1CCC[C@H]1C(=O)N[C@@H](CC(C)C)C(=O)N[C@@H](Cc1ccc(O)cc1)C(=O)N[C@@H](CCCCN)C(=O)N[C@@H](C(C)C)C(=O)N[C@@H](Cc1cnc[nH]1)C(=O)N[C@H](C(N)=O)CSC3 [compound 98, TSL6- SMCPLYKVHC] (MCPLYKVHC-NH2; linker N-2-9 via X3) | 3.82 | –
CC[C@H](C)[C@@H]1NC(=O)[C@H](C)NC(=O)[C@H](CC[S+](C)[O-])NC(=O)[C@@H]2CCCN2C(=O)[C@@H]2CSCc3cc(cc(c3)OCCCCCCO/N=C/C(=O)N[C@@H](CCC(N)=O)C(=O)N2)CSC[C@@H](C(N)=O)NC(=O)[C@H]([C@@H](C)O)NC(=O)[C@@H]2CCCN2C1=O (stereo partly shown) [compound 99, TSL6-SQCP{Ox-Met} AIPTC] (QCP[Met(O)]AIPTC-NH2; linker N-2-9 via X3) | 3.82 | –
CSCC[C@@H]1NC(=O)[C@H]([C@@H](C)O)NC(=O)[C@H](C)NC(=O)CNC(=O)[C@@H]2CSCc3cc(cc(c3)OCCCCCCO/N=C/C(=O)N[C@@H](Cc3ccccc3)C(=O)N2)CSC[C@@H](C(N)=O)NC(=O)[C@H](CCCCN)NC(=O)[C@H](CCCCN)NC1=O [compound 100, TSL6- SFCGATMKKC] (FCGATMKKC-NH2; linker N-2-9 via X3) | 3.79 | –
CSCC[C@@H]1NC(=O)/C=N/OCCCCCCOc2cc3cc(c2)CSC[C@H](NC1=O)C(=O)N[C@@H](Cc1ccc(O)cc1)C(=O)N1CCC[C@H]1C(=O)N[C@@H](CC(=O)O)C(=O)N[C@@H]([C@@H](C)O)C(=O)N[C@@H](Cc1ccc(O)cc1)C(=O)N[C@@H](Cc1cnc[nH]1)C(=O)N[C@H](C(N)=O)CSC3 [compound 101, TSL6- SMCYPDTYHC] (MCYPDTYHC-NH2; linker N-2-9 via X3) | 3.78 | –
CSCC[C@@H]1NC(=O)[C@H](CCC(N)=O)NC(=O)[C@@H]2CSCc3cc(cc(c3)OCCCCCCO/N=C/C(=O)N[C@@H](Cc3ccccc3)C(=O)N2)CSC[C@@H](C(N)=O)NC(=O)[C@H](C)NC(=O)[C@H](CCCCN)NC(=O)[C@H](CCC(=O)O)NC(=O)[C@H](Cc2ccccc2)NC1=O [compound 102, TSL6- SFCQMFEKAC] (FCQMFEKAC-NH2; linker N-2-9 via X3) | 3.75 | –
CCCC[C@@H]1NC(=O)[C@H](CO)NC(=O)[C@@H]2CSSC[C@@H](C(=O)N[C@@H](Cc3c[nH]c4ccccc34)C(=O)N[C@@H](CCC(N)=O)C(N)=O)NC(=O)[C@H](CC(C)C)NC(=O)[C@@H](CC(=O)O)NC(=O)[C@H](CCCC)NC(=O)[C@H](CO)NC(=O)[C@H](CCCNC(=N)N)NC(=O)[C@H](CSCC(=O)N[C@@H](CCCNC(=N)N)C(=O)N2)NC(=O)[C@H](CC(C)C)NC(=O)[C@H](CC(=O)O)NC1=O [compound 103, Disulfide- RCS{Nle}DICRS NleDICWQ] ({CH2CO}-RCS[Nle]DLCRS[Nle][dD]LCWQ-NH2; disulfide 2-13; thioether N-7) | 3.58 | –
CC(C)C[C@@H]1NC(=O)[C@H](Cc2ccccc2)NC(=O)[C@@H]2CSCc3cc(cc(c3)OCCCCCCO/N=C/C(=O)N[C@@H]([C@@H](C)O)C(=O)N2)CSC[C@@H](C(N)=O)NC(=O)[C@H](CC(N)=O)NC(=O)[C@H](CCCCN)NC(=O)[C@H](C(C)C)NC(=O)[C@H](CC(=O)O)NC1=O [compound 104, TSL6- STCFLDVKNC] (TCFLDVKNC-NH2; linker N-2-9 via X3) | 3.51 | –
CC(C)C[C@@H]1NC(=O)[C@@H]2CCCN2C(=O)[C@H](Cc2c[nH]c3ccccc23)NC(=O)[C@@H]2CCCN2C(=O)[C@@H]2CSCc3cc(cc(c3)OCCCCCCO/N=C/C(=O)N[C@@H](CCC(=O)O)C(=O)N2)CSC[C@@H](C(N)=O)NC(=O)[C@H](CCC(N)=O)NC(=O)[C@@H]2CCCN2C1=O [compound 105, TSL6- SECPWPLPQC] (ECPWPLPQC-NH2; linker N-2-9 via X3) | 3.47 | –
